Test results reported in patent US20060121180A1, “Metallic structures incorporating bioactive materials and methods for creating the same” (Medlogics Device Corporation, priority 2001, published 2006).

Legend:
[1] = Drug elution from coated stents into physiologic saline solution (spectrophotometric assay); type: physicochemical; settings: Bx Velocity (316L) and Smart (nitinol) stents with Ni-P coating, physiologic saline changed daily (FIGS. 6 and 7)
Text: Coated stents were formed using the same basic electroless deposition procedure in Example 1. However, in this example, instead of foil substrates, Johnson and Johnson Bx velocity stents (stainless steel) and Johnson and Johnson Smart stents (nitinol) were used as substrates. Bioactive composite structures in the form of layers were formed on the stents.
The amounts on the y-axis of the graphs represent the amount of bioactive material remaining on the stent after elution into a physiologic saline solution.
A similar anodization process as was used in the stent examples as was again applied to the foil substrates. After coating, the coated stent was placed in a physiologic saline solution and the solution changed daily. On the indicated days, the stent coatings were anodized. The amount of bioactive material released in each case was determined using a spectrophotometric assay.

[2] = Optical absorbance of elution bath from coated 316L stainless steel sample in 0.9% saline; type: physicochemical; settings: 1 cm2 316L stainless steel sample
Text: Table 3 depicts several experiments following the general procedures outlined in example 1, each with one time point and for a new bioactive material. M is the difference in absorbance between an elution bath from the sample containing the respective bioactive material and the absorbance from a sample with pure coating (i.e. control). In this instance, a 1 cm2 medical grade 316L stainless steel sample was coated using the above mentioned process.
M refers to the absorbance difference between coated with bioactive material and coated without bioactive material.

ΔA (absorbance difference, coated with vs without bioactive material) ([2]; Time = 0, immediately after deposition) | ΔA (absorbance difference, coated with vs without bioactive material) ([2]; after seven days in 0.9% saline solution, characteristic absorbance wavelength in parentheses) | Molecule | time over which appreciable amounts were released [1] [days]
 |  | O=c1[nH]cc(F)c(=O)[nH]1 [Fluorouracil, 5-fluorouracil] | 40
 |  | albumin | 40
0 | 2.4 (230 nm) | heparin | 
